According to patent publication US9247759B2, “Identification of human T2R receptors that respond to bitter compounds that elicit the bitter taste in compositions, and the use thereof in assays to identify compounds that inhibit (block) bitter taste in compositions and use thereof” (SENOMYX, INC., priority 2007, dated 2016):

Legend:
hT2R14 [1] = biological target: T1, hT2R14 (Homo sapiens (Human), UniProt Q9NYV8); assay: hT2R panel inhibition, transient HEK293 G16g44, agonist Aristolochic Acid 2 μM; type: cell-based; conditions: HEK293, compound at 25 μM; receptor activated to EC80 with the corresponding agonist; read-out: screening result against bitter receptor 14
T1 sequence (Q9NYV8 whole entry): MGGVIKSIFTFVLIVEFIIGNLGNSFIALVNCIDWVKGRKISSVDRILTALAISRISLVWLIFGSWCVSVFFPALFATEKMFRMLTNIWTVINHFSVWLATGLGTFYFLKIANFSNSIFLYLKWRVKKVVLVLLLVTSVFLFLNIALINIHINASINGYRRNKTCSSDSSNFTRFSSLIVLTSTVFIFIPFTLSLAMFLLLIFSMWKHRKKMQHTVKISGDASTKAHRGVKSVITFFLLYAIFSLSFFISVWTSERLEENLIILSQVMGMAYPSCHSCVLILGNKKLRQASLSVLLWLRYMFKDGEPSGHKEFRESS
Summary of the method: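 Agonist challenge was at EC80, with 0.5 mM andrographolide on hT2R8 and 2 μM aristolochic acid on hT2R14. Inhibition was measured in functional assays in HEK293 cells that stably carry the promiscuous G protein G16g44 and were transiently transfected with the individual receptor.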

hT2R67 = assay: hT2R panel inhibition, transient HEK293 G16g44, agonist Andrographolide 5 μM; type: cell-based, human; conditions: compound at 25 μM; receptor activated to EC80 with the corresponding agonist
Summary of the method: (§1)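 Compound C tested for reduction of receptor activity evoked by EC80-level bitter agonists, receptor by receptor. Assay cells: HEK293 line stably carrying promiscuous G protein G16g44, transiently transfected with individual human T2Rs.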

hT2R3 = hT2R3 (Homo sapiens (Human), UniProt Q9NYW6); assay: hT2R panel inhibition, transient HEK293 G16g44, agonist Chloroquine pH6.5 50 μM; type: cell-based; conditions: HEK293, compound at 25 μM; receptor activated to EC80 with the corresponding agonist; read-out: screening result against bitter receptor 3
Chain of hT2R3 (Q9NYW6 whole entry): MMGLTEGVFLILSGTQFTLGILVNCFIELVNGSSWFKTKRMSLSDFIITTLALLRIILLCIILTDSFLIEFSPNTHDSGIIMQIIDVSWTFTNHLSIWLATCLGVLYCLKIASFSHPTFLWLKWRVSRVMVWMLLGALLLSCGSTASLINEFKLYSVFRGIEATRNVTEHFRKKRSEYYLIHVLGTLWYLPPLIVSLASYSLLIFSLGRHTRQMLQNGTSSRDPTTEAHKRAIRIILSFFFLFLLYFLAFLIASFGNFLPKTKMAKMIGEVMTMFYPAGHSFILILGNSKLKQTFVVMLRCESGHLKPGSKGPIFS
Summary of the method: as §1

hT2R64 = hT2R64 (Homo sapiens (Human), UniProt P59538); assay: hT2R panel inhibition, transient HEK293 G16g44, agonist Aristolochic Acid 1 μM; type: cell-based; conditions: HEK293, compound at 25 μM; receptor activated to EC80 with the corresponding agonist; read-out: screening result against bitter receptor 64
Chain of hT2R64 (P59538 whole entry): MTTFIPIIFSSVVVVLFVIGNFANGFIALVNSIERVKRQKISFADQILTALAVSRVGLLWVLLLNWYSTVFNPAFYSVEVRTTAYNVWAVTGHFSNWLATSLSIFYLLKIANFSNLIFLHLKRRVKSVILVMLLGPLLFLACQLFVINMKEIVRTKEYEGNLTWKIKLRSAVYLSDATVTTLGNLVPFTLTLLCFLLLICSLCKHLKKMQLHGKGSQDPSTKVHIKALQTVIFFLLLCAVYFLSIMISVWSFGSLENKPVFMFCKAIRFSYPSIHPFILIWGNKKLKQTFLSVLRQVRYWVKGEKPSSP
Summary of the method: as §1

hT2R63 = assay: hT2R panel inhibition, transient HEK293 G16g44, agonist Caffeine 1 mM or Andrographolide 100 μM; type: cell-based, human; conditions: compound at 25 μM; receptor activated to EC80 with the corresponding agonist
Summary of the method: as §1

hT2R54 = assay: hT2R panel inhibition, transient HEK293 G16g44, agonist Ranitidine 5 mM; type: cell-based, human; conditions: compound at 25 μM; receptor activated to EC80 with the corresponding agonist
Summary of the method: as §1

hT2R71 = hT2R71 (Homo sapiens (Human), UniProt P59536); assay: hT2R panel inhibition, transient HEK293 G16g44, agonist Picric Acid 10 μM; type: cell-based; conditions: HEK293, compound at 25 μM; receptor activated to EC80 with the corresponding agonist; read-out: screening result against bitter receptor 71
Chain of hT2R71 (P59536 whole entry): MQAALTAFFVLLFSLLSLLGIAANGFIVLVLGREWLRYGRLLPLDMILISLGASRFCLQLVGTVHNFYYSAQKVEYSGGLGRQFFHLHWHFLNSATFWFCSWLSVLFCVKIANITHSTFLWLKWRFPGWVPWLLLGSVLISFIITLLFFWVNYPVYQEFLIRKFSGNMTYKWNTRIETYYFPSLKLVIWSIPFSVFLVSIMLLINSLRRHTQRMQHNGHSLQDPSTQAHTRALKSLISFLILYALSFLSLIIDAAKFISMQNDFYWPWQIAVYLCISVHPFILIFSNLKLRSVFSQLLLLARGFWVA
Summary of the method: as §1

hT2R44 = assay: hT2R panel inhibition, transient HEK293 G16g44, agonist Denatonium 0.5 μM; type: cell-based, human; conditions: compound at 25 μM; receptor activated to EC80 with the corresponding agonist
Summary of the method: as §1

hT2R75 = hT2R75 (Homo sapiens (Human), UniProt P59540); assay: hT2R panel inhibition, transient HEK293 G16g44, agonist Strychnine 1 μM; type: cell-based; conditions: HEK293, read-out: screening result against bitter receptor 75, compound at 25 μM; receptor activated to EC80 with the corresponding agonist
Chain of hT2R75 (P59540 whole entry): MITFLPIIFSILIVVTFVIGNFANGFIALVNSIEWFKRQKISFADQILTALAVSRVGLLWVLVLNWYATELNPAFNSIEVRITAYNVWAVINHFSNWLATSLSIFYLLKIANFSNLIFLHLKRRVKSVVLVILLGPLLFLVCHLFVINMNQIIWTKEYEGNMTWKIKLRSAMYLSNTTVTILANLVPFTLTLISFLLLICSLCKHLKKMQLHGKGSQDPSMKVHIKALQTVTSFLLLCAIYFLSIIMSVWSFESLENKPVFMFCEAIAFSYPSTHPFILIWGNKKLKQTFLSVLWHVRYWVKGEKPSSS

hT2R55 = assay: hT2R panel inhibition, transient HEK293 G16g44, agonist Cinchonine 150 μM; type: cell-based, human; conditions: compound at 25 μM; receptor activated to EC80 with the corresponding agonist
Summary of the method: as §1

hT2R10 = hT2R10 (Homo sapiens (Human), UniProt Q9NYW0); assay: hT2R panel inhibition, transient HEK293 G16g44, agonist Strychnine 50 μM; type: cell-based; conditions: HEK293, read-out: screening result against bitter receptor 10, compound at 25 μM; receptor activated to EC80 with the corresponding agonist
Chain of hT2R10 (Q9NYW0 whole entry): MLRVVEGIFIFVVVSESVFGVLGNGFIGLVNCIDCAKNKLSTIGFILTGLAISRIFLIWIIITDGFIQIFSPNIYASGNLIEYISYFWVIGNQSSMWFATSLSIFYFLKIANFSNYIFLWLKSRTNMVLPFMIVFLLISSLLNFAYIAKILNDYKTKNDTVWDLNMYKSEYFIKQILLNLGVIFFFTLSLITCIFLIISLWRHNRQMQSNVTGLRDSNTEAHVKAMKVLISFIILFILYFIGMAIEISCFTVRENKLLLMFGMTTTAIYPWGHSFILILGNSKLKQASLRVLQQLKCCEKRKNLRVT

hT2R9 = hT2R9 (Homo sapiens (Human), UniProt Q9NYW1); assay: hT2R panel inhibition, transient HEK293 G16g44, agonist Ofloxacin 1 mM; type: cell-based; conditions: HEK293, compound at 25 μM; receptor activated to EC80 with the corresponding agonist; read-out: screening result against bitter receptor 9
Chain of hT2R9 (Q9NYW1 whole entry): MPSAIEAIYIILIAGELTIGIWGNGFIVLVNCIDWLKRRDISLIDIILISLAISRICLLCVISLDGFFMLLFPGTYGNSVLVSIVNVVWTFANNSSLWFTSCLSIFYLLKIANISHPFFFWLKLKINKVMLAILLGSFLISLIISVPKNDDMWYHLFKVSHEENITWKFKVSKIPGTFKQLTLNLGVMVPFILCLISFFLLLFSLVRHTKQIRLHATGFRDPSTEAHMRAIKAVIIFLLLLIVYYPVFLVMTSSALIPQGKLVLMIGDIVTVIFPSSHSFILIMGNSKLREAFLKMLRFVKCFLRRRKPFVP
Protocol: Specifically, in order to evaluate the inhibitory selectivity of the Compound C compound, this compound was tested against 22 human T2Rs which were deorphaned by Senomyx. These receptors and the bitter ligands that activate these human T2Rs are reported in earlier patent applications which are incorporated by reference herein. These 22 human T2Rs are hT2R1, 3, 4, 5, 7, 8, 9, 10, 13, 14, 16, 44, 51, 54, 55, 61, 63, 64, 65, 67, 71 and 75. The amino acid and nucleic acid sequences of all of these T2Rs may be found in these earlier patent applications. These human T2Rs were each individually transiently transfected into HEK293 cells that stably express the promiscuous G protein G16g44 and functional assays were effected using these receptors as disclosed in these same patent applications. […] The ligands were used at EC80 concentration levels. The list of bitter ligands utilized and the tested ligand concentrations are contained in Table 5 of this example.
Relating to the foregoing, FIG. 5 contains experimental results wherein Compound C was tested with different agonist compounds. The inhibition activity is represented by the reduction of receptor activity in the presence of Compound C. […] These 13 hT2Rs are hT2R3, 7, 10, 14, 16, 44, 51, 55, 61, 63, 64, 65, and 71.

hT2R61 = hT2R61 (Homo sapiens (Human), UniProt P59537); assay: hT2R panel inhibition, transient HEK293 G16g44, agonist Aristolochic Acid 25 nM; type: cell-based; conditions: HEK293, compound at 25 μM; receptor activated to EC80 with the corresponding agonist; read-out: screening result against bitter receptor 61
Chain of hT2R61 (P59537 whole entry): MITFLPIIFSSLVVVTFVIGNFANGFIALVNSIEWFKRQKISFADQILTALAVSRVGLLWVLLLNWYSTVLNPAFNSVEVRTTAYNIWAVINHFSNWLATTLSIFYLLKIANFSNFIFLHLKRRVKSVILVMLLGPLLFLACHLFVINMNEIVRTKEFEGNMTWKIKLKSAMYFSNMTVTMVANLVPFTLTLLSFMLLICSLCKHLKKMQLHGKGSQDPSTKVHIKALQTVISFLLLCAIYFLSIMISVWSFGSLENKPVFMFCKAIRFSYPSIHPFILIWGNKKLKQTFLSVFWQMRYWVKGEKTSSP
Summary of the method: as §1

hT2R51 = hT2R51 (Homo sapiens (Human), UniProt P59533); assay: hT2R panel inhibition, transient HEK293 G16g44, agonist Prop 2.5 μM; type: cell-based; conditions: HEK293, compound at 25 μM; receptor activated to EC80 with the corresponding agonist; read-out: screening result against bitter receptor 51
Chain of hT2R51 (P59533 whole entry): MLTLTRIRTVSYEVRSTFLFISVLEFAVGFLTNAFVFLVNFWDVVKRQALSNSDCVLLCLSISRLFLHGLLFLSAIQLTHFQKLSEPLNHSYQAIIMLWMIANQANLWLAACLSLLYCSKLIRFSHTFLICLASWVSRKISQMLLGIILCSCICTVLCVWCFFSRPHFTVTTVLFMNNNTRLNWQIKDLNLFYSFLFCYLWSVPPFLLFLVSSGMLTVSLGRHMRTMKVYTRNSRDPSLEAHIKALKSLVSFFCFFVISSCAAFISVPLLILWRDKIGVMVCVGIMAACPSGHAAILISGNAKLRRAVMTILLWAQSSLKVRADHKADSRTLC
Summary of the method: as §1

hT2R16 = hT2R16 (Homo sapiens (Human), UniProt Q9NYV7); assay: hT2R panel inhibition, transient HEK293 G16g44, agonist Salicin 1 mM; type: cell-based; conditions: HEK293, compound at 25 μM; receptor activated to EC80 with the corresponding agonist; read-out: screening result against bitter receptor 16
Chain of hT2R16 (Q9NYV7 whole entry): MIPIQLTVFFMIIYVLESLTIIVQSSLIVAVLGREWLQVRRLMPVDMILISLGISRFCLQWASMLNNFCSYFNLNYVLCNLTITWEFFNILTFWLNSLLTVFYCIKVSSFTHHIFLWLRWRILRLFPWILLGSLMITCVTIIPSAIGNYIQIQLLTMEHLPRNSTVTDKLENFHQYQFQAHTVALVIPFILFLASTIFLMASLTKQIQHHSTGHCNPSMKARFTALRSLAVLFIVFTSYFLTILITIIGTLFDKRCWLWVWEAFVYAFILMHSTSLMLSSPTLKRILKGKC
Summary of the method: as §1

hT2R5 = hT2R5 (Homo sapiens (Human), UniProt Q9NYW4); assay: hT2R panel inhibition, transient HEK293 G16g44, agonist Picoline 10 mM; type: cell-based; conditions: HEK293, compound at 25 μM; receptor activated to EC80 with the corresponding agonist; read-out: screening result against bitter receptor 5
Chain of hT2R5 (Q9NYW4 whole entry): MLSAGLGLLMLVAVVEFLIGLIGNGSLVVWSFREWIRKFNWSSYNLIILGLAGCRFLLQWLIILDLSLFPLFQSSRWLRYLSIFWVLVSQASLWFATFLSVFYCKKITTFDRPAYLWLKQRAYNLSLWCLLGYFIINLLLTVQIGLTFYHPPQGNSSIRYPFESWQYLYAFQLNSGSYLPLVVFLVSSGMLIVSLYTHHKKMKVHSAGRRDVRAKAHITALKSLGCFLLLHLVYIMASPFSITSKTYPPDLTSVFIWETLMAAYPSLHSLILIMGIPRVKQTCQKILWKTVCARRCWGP
Summary of the method: as §1

hT2R65 = assay: hT2R panel inhibition, transient HEK293 G16g44, agonist Oleuropein 1 mM; type: cell-based, human; conditions: compound at 25 μM; receptor activated to EC80 with the corresponding agonist
Summary of the method: as §1

hT2R7 = hT2R7 (Homo sapiens (Human), UniProt Q9NYW3); assay: hT2R panel inhibition, transient HEK293 G16g44, agonist Chloroquine pH6.5 10 mM; type: cell-based; conditions: HEK293, compound at 25 μM; receptor activated to EC80 with the corresponding agonist; read-out: screening result against bitter receptor 7
Chain of hT2R7 (Q9NYW3 whole entry): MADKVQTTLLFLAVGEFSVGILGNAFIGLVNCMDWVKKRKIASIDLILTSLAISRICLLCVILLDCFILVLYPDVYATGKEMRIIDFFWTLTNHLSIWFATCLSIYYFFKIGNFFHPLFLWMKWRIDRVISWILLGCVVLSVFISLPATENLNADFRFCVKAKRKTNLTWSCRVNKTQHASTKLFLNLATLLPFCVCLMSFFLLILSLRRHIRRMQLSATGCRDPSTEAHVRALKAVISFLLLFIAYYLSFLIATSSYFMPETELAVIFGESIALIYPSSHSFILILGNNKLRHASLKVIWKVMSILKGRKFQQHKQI
Summary of the method: as §1

hT2R4 = hT2R4 (Homo sapiens (Human), UniProt Q9NYW5); assay: hT2R panel inhibition, transient HEK293 G16g44, agonist Chloroquine pH6.5 5 mM; type: cell-based; conditions: HEK293, compound at 25 μM; receptor activated to EC80 with the corresponding agonist; class symbols; read-out: screening result against bitter receptor 4
Chain of hT2R4 (Q9NYW5 whole entry): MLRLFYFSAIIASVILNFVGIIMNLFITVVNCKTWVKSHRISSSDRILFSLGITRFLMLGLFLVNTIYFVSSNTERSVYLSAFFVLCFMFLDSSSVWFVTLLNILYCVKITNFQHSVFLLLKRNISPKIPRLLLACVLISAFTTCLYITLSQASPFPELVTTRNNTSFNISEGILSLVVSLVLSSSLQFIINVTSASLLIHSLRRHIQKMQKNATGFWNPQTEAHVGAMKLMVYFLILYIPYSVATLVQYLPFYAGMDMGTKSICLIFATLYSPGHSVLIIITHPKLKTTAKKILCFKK
Summary of the method: as §1

hT2R14 [2] = biological target: T1, hT2R14; assay: hT2R14 antagonist high-throughput FLIPR assay, stable cell line with G16g44, agonist aristolochic acid; type: cell-based; conditions: read-out: IC50 on hT2R14 bitter receptor
Summary of the method: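 Compounds were co-applied with 3 μM aristolochic acid, a dose set to reach 70-80% of maximal hT2R14 activation. Read-out was FLIPR fluorescence in a stable HEK293 line co-expressing hT2R14 and G16g44.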

Row | Structure (SMILES) | inhibition at 25 µM (hT2R14 [1]) | screening result against bitter receptor 67 (hT2R67) | inhibition at 25 µM (hT2R3) | inhibition at 25 µM (hT2R64) | screening result against bitter receptor 63 (hT2R63) | screening result against bitter receptor 54 (hT2R54) | inhibition at 25 µM (hT2R71) | screening result against bitter receptor 44 (hT2R44) | inhibition at 25 µM (hT2R75) | screening result against bitter receptor 55 (hT2R55) | inhibition at 25 µM (hT2R10) | inhibition at 25 µM (hT2R9) | inhibition at 25 µM (hT2R61) | inhibition at 25 µM (hT2R51) | inhibition at 25 µM (hT2R16) | inhibition at 25 µM (hT2R5) | screening result against bitter receptor 65 (hT2R65) | inhibition at 25 µM (hT2R7) | inhibition at 25 µM (hT2R4) | IC50 (hT2R14 [2])
1 | O=C(O)c1ccc(S(=O)(=O)N(Cc2ccccc2)Cc2ccccc2F)cc1 [Example 5-72, 4-(N-benzyl-N-(2-fluorobenzyl)sulfamoyl)benzoic acid] | > 80% | + (20% to 40% inhibition = +) | 20 to 40% | 20 to 40% | ++++ (80% or greater inhibition = ++++) | + (20% to 40% inhibition = +) | 20 to 40% | + (20% to 40% inhibition = +) | 40 to 60% | ++ (40% to 60% inhibition = ++) | 20 to 40% | 20 to 40% | 60 to 80% | 20 to 40% | 20 to 40% | 40 to 60% | + (20% to 40% inhibition = +) |  |  | 
2 | COc1ccc(CN(Cc2ccccc2)S(=O)(=O)Cc2ccc(C(=O)O)cc2)cc1 [Example 5-16, 4-((N-benzyl-N-(4-methoxybenzyl)sulfamoyl)methyl)benzoic acid] | 20 to 40% |  | 40 to 60% | > 80% |  |  | 40 to 60% | +++ (60% to 80% inhibition = +++) | 20 to 40% | ++++ (80% or greater inhibition = ++++) | 20 to 40% | 20 to 40% | 60 to 80% |  | 20 to 40% | 20 to 40% | + (20% to 40% inhibition = +) | 20 to 40% | 20 to 40% | 
3 | CCOc1ccc(CN(Cc2ccco2)S(=O)(=O)c2ccc(C(=O)O)cc2)cc1 [Example 5-3, 4-(N-(4-ethoxybenzyl)-N-(furan-2-ylmethyl)sulfamoyl)benzoic acid] | > 80% |  | 40 to 60% | > 80% | +++ (60% to 80% inhibition = +++) | ++ (40% to 60% inhibition = ++) | 20 to 40% | ++ (40% to 60% inhibition = ++) |  | ++++ (80% or greater inhibition = ++++) | 40 to 60% | 20 to 40% | 40 to 60% | 20 to 40% | 20 to 40% |  | + (20% to 40% inhibition = +) |  | 60 to 80% | 3000 nM
4 | Cc1ccccc1CN(Cc1ccccc1)S(=O)(=O)c1ccc(C(=O)O)cc1 [Example 5-80, 4-(N-benzyl-N-(2-methylbenzyl)sulfamoyl)benzoic acid] | > 80% | + (20% to 40% inhibition = +) | 40 to 60% | 60 to 80% | ++++ (80% or greater inhibition = ++++) | + (20% to 40% inhibition = +) | 60 to 80% | + (20% to 40% inhibition = +) | 20 to 40% | +++ (60% to 80% inhibition = +++) | 20 to 40% | 20 to 40% | 60 to 80% | 40 to 60% | 20 to 40% | 20 to 40% | ++ (40% to 60% inhibition = ++) | 20 to 40% |  | 
5 | COc1ccc(CN(Cc2ccccc2C#N)S(=O)(=O)c2ccc(C(=O)O)cc2)cc1 [Example 5-25, 4-(N-(2-cyanobenzyl)-N-(4-methoxybenzyl)sulfamoyl)benzoic acid] | > 80% | ++ (40% to 60% inhibition = ++) | 60 to 80% |  |  | +++ (60% to 80% inhibition = +++) |  | +++ (60% to 80% inhibition = +++) |  | +++ (60% to 80% inhibition = +++) | 60 to 80% | 20 to 40% |  | 20 to 40% | 40 to 60% | 40 to 60% | ++++ (80% or greater inhibition = ++++) | 40 to 60% | 20 to 40% | 4610 nM
6 | COc1ccc(CN(Cc2cccc(OC)c2)S(=O)(=O)c2ccc(C(=O)O)cc2)cc1 [Example 5-34, 4-(N-(3-methoxybenzyl)-N-(4-methoxybenzyl)sulfamoyl)-benzoic acid] | > 80% | + (20% to 40% inhibition = +) | 40 to 60% | 60 to 80% | ++++ (80% or greater inhibition = ++++) | +++ (60% to 80% inhibition = +++) | 60 to 80% | ++ (40% to 60% inhibition = ++) |  | ++++ (80% or greater inhibition = ++++) | 40 to 60% | 20 to 40% | > 80% | 20 to 40% | 20 to 40% | 40 to 60% | ++ (40% to 60% inhibition = ++) | 20 to 40% |  | 2460 nM
